In brackets after ≈: the same amount, converted by molar mass.
Legend:
Rattus norvegicus [1] = test: Urinary excretion in intact Sprague-Dawley rat at 100 mg/kg, po after 168 hrs; format: ADME, organism-based, Urine; design: dose 100 mg/kg, route oral; conditions: in vivo
[2] = Urinary excretion in bile duct cannulated Sprague-Dawley rat at 100 mg/kg, po after 72 hrs; format: ADME, organism-based; design: dose 100 mg/kg, route oral; conditions: urine, read-out: Activity
[3] = Biliary excretion in bile duct cannulated Sprague-Dawley rat at 100 mg/kg, po after 72 hrs; format: ADME, organism-based; design: dose 100 mg/kg, route oral; conditions: read-out: Activity
[4] = Fecal excretion in bile duct cannulated Sprague-Dawley rat at 100 mg/kg, po after 72 hrs; format: ADME, organism-based; design: dose 100 mg/kg, route oral; conditions: faeces, read-out: Activity
[5] = Fecal excretion in intact Sprague-Dawley rat at 100 mg/kg, po after 168 hrs; format: ADME, organism-based; design: dose 100 mg/kg, route oral; conditions: faeces, read-out: Activity
Rattus norvegicus [6] = test: (§1) AUC (0-t) in jugular vein cannulated Sprague-Dawley rat at 100 mg/kg, po; format: ADME, organism-based, Plasma; design: dose 100 mg/kg, route oral; conditions: in vivo
Rattus norvegicus [7] = test: AUC(0-t) in jugular vein cannulated Sprague-Dawley rat at 100 mg/kg, po administered as prodrug; format: ADME, organism-based, Plasma; design: dose 100 mg/kg, route oral; conditions: in vivo
Rattus norvegicus [8] = test: Apparent oral bioavailability in jugular vein cannulated Sprague-Dawley rat at 100 mg/kg, po administered as prodrug; format: ADME, organism-based; conditions: in vivo
[9] = Cmax in Sprague-Dawley rat after 15 days at 60 mg/kg/day, iv; format: ADME, organism-based; design: dose 60 mg/kg/day, route intravenous; conditions: in vivo
[10] = AUC in Sprague-Dawley rat after 15 days at 60 mg/kg/day, iv; format: ADME, organism-based; design: route intravenous; conditions: plasma
[11] = Aqueous solubility of the compound; format: physicochemical
[12] = Chemical stability at pH 1.2; format: physicochemical; conditions: buffer
[13] = Chemical stability at pH 7.2; format: physicochemical; conditions: buffer
Rattus norvegicus [14] = test: Tmax in jugular vein cannulated Sprague-Dawley rat at 100 mg/kg, po administered as prodrug; format: ADME, organism-based; design: dose 100 mg/kg, route oral; conditions: in vivo
[15] = Chemical stability at pH 4.5; format: physicochemical; conditions: buffer
Rattus norvegicus [16] = test: Cmax in jugular vein cannulated Sprague-Dawley rat at 100 mg/kg, po administered as prodrug; format: ADME, organism-based; design: dose 100 mg/kg, route oral; conditions: in vivo
Rattus norvegicus [17] = test: Terminal half life in jugular vein cannulated Sprague-Dawley rat at 100 mg/kg, po administered as prodrug; format: ADME, organism-based; design: dose 100 mg/kg, route oral; conditions: in vivo
[18] = Distribution coefficient, log P of the compound; format: physicochemical; conditions: octanol/water
[19] = Protein binding in rat plasma at 20 uM; format: ADME, cell-free; conditions: read-out: PPB (converted)
[20] = Half life at pH 4.5; format: ADME; conditions: buffer
Homo sapiens [21] = organism: Homo sapiens; test: Conversion of prodrug to 2'-C-methylcytidine in human liver S9 fraction; format: ADME, organism-based
[22] = Terminal half life in jugular vein cannulated Sprague-Dawley rat at 100 mg/kg, po; format: ADME, organism-based; design: dose 100 mg/kg, route oral; conditions: in vivo, read-out: beta t1/2 (converted)
Plasma = test: Drug level in jugular vein cannulated Sprague-Dawley rat plasma after 12 hrs; format: ADME, cell-free
[23] = Tmax in jugular vein cannulated Sprague-Dawley rat at 100 mg/kg, po; format: ADME, organism-based; design: dose 100 mg/kg, route oral; conditions: in vivo
Homo sapiens [24] = organism: Homo sapiens; test: Half life in human plasma
Homo sapiens [25] = organism: Homo sapiens; test: Conversion of prodrug to 2'-C-methylcytidine in human liver cytosol; format: ADME, organism-based
[26] = Half life in human whole blood; format: ADME, organism-based
[27] = as §1; format: ADME, organism-based, Plasma; design: dose 100 mg/kg, route oral; conditions: Sprague-Dawley, plasma
[28] = Half life at pH 7.2; format: ADME; conditions: buffer
[29] = Cmax in jugular vein cannulated Sprague-Dawley rat at 100 mg/kg, po; format: ADME, organism-based; design: dose 100 mg/kg, route oral; conditions: in vivo

CC(C)C(N)C(=O)O[C@H]1[C@H](CO)O[C@H](n2ccc(N)nc2=O)[14C@@]1(C)O.Cl.Cl (stereo partly drawn)
Activity (Rattus norvegicus [1]): 31.9% | dose excreted at 72 h [2]: 29.8% | dose excreted at 72 h [3]: 0.3% | dose excreted at 72 h [4]: 65.9% | dose excreted at 168 h [5]: 63.5%

C[C@@]1(O)[C@@H](n2ccc(=O)[nH]c2=O)O[C@@H](CO)[C@@H]1O
AUC (Rattus norvegicus [6]): < 0.1 µg/mL

C[C@@]1(O)[C@H](O)[C@@H](CO)O[C@H]1n1ccc(N)nc1=O
AUC (Rattus norvegicus [7]): 30000 ng·h/mL | F (Rattus norvegicus [8]): 33.6% | Cmax [9]: 75600 ng/mL | AUC at 360 h [10]: 74400 ng·h/mL | solubility [11]: 32 mg/mL (≈ 124 mM) | Stability [12]: Stable | Stability [13]: Stable | Tmax (Rattus norvegicus [14]): 2 h | Stability [15]: Stable | Cmax (Rattus norvegicus [16]): 6120 ng/mL | beta t1/2 (Rattus norvegicus [17]): 7.1 h | logP [18]: -0.965 | fraction unbound at 20 µM [19]: 0.95

CC(C)[C@H](N)C(=O)O[C@@H]1[C@@H](CO)O[C@@H](n2ccc(N)nc2=O)[C@]1(C)O.Cl.Cl [VALOPICITABINE DIHYDROCHLORIDE]
half-life [20]: 146 h | Activity (Homo sapiens [21]): 30% | half-life [22]: 0.64 h | Activity (Plasma): Not Active | solubility [11]: 423 mg/mL | Tmax [23]: 1 h | half-life (Homo sapiens [24]): 2.17 h | Activity (Homo sapiens [25]): 30% | half-life [26]: 0.667 h | logP [18]: -1.34 | AUC(0-t) [27]: 8950 ng·h/mL | fraction unbound at 20 µM [19]: 0.93 | half-life [28]: 3.9 h | Cmax [29]: 3620 ng/mL
